Key:
[1] = system: human retinal pigmented epithelial cells (ARPE-19); test: LDH activity analysis in retinal pigmented epithelial cells; format: cell-based; conditions: young and senescent retinal pigmented epithelial cells
Procedure: Cytotoxicity against young and senescent cells was investigated with a lactate dehydrogenase (LDH) activity kit (Dojindo Molecular Technologies Inc.).
Young cells (1×10^3 cells/100 μl/well) or senescent cells (2×10^3 cells/100 μl/well) were dispensed into a 96-well plate, and then cultured overnight in a 37° C., 5% CO2 incubator. Zotarolimus and ABT263 were treated at each concentration, and then incubated for 4 days in a 37° C., 5% CO2 incubator.
After transferring the cell culture solution to a 1.5 ml tube, it was centrifuged at 4° C. and 12,000 rpm. 100 μl of the supernatant was dispensed into a 96-well plate, and 100 μl of the LDH measurement solution was added to each well, followed by reaction in a CO2 incubator for 30 minutes.
50 μl of the LDH reaction stop solution was added, and absorbance was measured at 490 nm using a microplate reader. The level of LDH activity was expressed as a relative value based on the absorbance of the control group treated with only DMSO.

[2] = system: renal fibrosis induced by renal ischemia-reperfusion injury; test: Renal fibrosis induced by renal ischemia-reperfusion injury in mice; format: in vivo, C57BL/6J mice
Procedure: Animal experiments were performed with the approval of the Animal Experimental Ethics Committee, Yeungnam University College of Medicine (YUMC-AEC2018-024). C57BL/6J 8-week-old male mice were anesthetized by intraperitoneal injection of 2.5% Avertin (0.025 ml/g body weight).
The anesthetized mice were placed on a hot plate at 37° C. and the left flank was incised to expose the left kidney. The renal arteriovenous blood vessels were ligated with a microaneurism clamp (Roboz), and whether the blood vessels were blocked or not was confirmed by the color of the kidneys. During the induction of ischemia, the body temperature of the mice was maintained at 36.5-37.5° C. After 35 minutes, the clamp was removed and it was confirmed that reperfusion occurred.
As a control, renal arteriovenous vessels were not ligated, and the rest was performed in the same manner as above. From 4 days after ischemia-reperfusion injury, 2.5 μl of 10 mM zotarolimus was diluted in 100 μl of phosphate buffer solution at intervals of 2 days and injected into the abdominal cavity 3 times (Zota group). […] Three mice were used for each group.
The left kidney in which ischemia-reperfusion injury was induced, was excised in half and fixed in 10% formalin solution or stored frozen in liquid nitrogen. […]
To confirm the degree of lipid peroxidation in tissues, malondialdehyde (MDA) was confirmed by the TBARS method (Garcia Y J, et al., Journal of neuroscience methods. 2005).
Briefly, 1.4 ml of TBARS solution [0.375% thiobarbituric acid (TBA), 15% trichloroacetic acid (TCA), 0.25 N HCl] was added to the tissue pulverization solution (0.3 mg protein/0.1 ml), and boiled for 15 minutes at 95-100° C. and centrifugation was performed at 4° C. and 12,000 rpm for 10 minutes, and the absorbance of the supernatant was confirmed at 540 nm.
Lipid hydroperoxides were identified by ferrous ion oxidation xylenol orange (FOX) method (Jiang Z Y, et al., Lipids. 1991).
0.9 ml of FOX reagent (100 μM xylenol orange, 25 mM H2SO4, 0.1 M sorbitol, 2.5 mM ferrous ammonium sulfate] was reacted at room temperature for 30 minutes and then centrifuged to measure the absorbance of the supernatant at 570 nm. […]
RIPA buffer was added to the tissue and pulverized with WiseTis homogenizer HG-15D (DAIHAN Scientific, Seoul, South Korea). Centrifugation was performed at 12,000 rpm at 4° C. for 20 minutes, and the supernatant was transferred to a new tube.
The protein concentration of the supernatant was quantified by the BCA method. After electrophoresis (SDS-PAGE) of 30 μg of protein, Western blot analysis was performed. After electrophoresis, the protein was transferred from the gel to a polyvinylidene fluoride membrane (Pall Corporation).
The membrane was treated with a 5% Difco™ skim milk solution (Becton, Dickinson and Company, USA) for 2 hours at room temperature, and the primary antibody was added, followed by reaction at room temperature for 2 hours. As the primary antibody, anti-p53 antibody, anti-p16 antibody, anti-actin antibody, and anti-GAPDH antibody were purchased from Santa Cruz Biotechnology, Inc. Anti-phosphorylated-Rb antibody was obtained from New England Biolabs (Ipswich, Mass., USA), and the anti-SOD2 antibody and anti-catalase antibody were obtained from Bioworld Technology Inc. (Louis Park, Minn., USA), anti-4-HNE antibody, anti-α-smooth muscle actin antibody, and anti-type I collagen antibody were purchased from Abcam (Cambridge, UK).
The membrane treated with the primary antibody was washed three times for 15 minutes each with TBST (20 mM Tris-HCl (pH 8.0), 137 mM NaCl, 0.1% Tween 20), and reacted for 60 minutes by treatment with the secondary antibody.
After washing for at least 60 minutes with TBST, protein expression was confirmed using an ECL detection kit (Elpis Biotech, Daejeon, South Korea).
The tissue fixed in 10% formalin solution was embedded with paraffin and cut into 4 μm to prepare a tissue sample. […]

[3] = i.p. 3 times from day 4, vs PBS group

## CO[C@H]1C[C@@H]2CC[C@@H](C)[C@@](O)(O2)C(=O)C(=O)N2CCCC[C@H]2C(=O)O[C@H]([C@H](C)C[C@@H]2CC[C@H](n3cnnn3)[C@H](OC)C2)CC(=O)[C@H](C)/C=C(\C)[C@@H](O)[C@@H](OC)C(=O)[C@H](C)C[C@H](C)/C=C/C=C/C=C/1C [zotarolimus]
[1]
  cytotoxicity by LDH activity analysis: cytotoxicity specific to senescent cells did not appear
[2]; body weight before injury vs 11th day, i.p. 3 times at 2-day intervals, vs Sham group
  weight gain: significantly reduced compared to that of the Sham group
[2]; [3]
  plasma BUN: decreased
  plasma creatinine: decreased
[2]; kidney tissue
  expression of SOD2: increased
  expression of catalase: increased
  superoxide: significantly reduced
[2]; kidney tissue specimen, vs PBS group
  damage to the kidney tubules: significantly reduced
[2]; kidney tissue, vs PBS group
  degree of lipid oxidation (lipid hydroperoxides and MDA): significantly reduced
  degree of tissue fibrosis by trichrome staining: significantly reduced
  expression level of 4-HNE (Western blot): significantly reduced
  expression level of p16 (Western blot): significantly reduced
  expression of p53 (Western blot): significantly reduced
  expression of pRb (Western blot): significantly reduced
  expression of type 1 collagen (COL1) (Western blot): significantly reduced
  expression of α-SMA (Western blot): significantly reduced
  lipofuscin staining intensity (Sudan Black B): significantly reduced

Reference: patent publication US20220023271A1, “COMPOSITION FOR PREVENTING OR TREATING CELLULAR SENESCENCE-RELATED DISEASES COMPRISING ZOTAROLIMUS AS ACTIVE INGREDIENT” (RESEARCH COOPERATION FOUNDATION OF YEUNGNAM UNIVERSITY, priority 2018, published 2022)
